From patent US10730850B2, “Pyridinylmethyl carbamimidoylcarbamate derivatives and their use as AOC3 inhibitors” (Boehringer Ingelheim International GmbH, priority 2016, dated 2020) come the findings set out here.

A short description of data set [1]: In vivo clearance experiment (biliary clearance). Conditions: rat, bile collected 0-180 min. On the procedure: Bile flow is continuously collected from animal for 4 hours, including the 1 hour post-surgery recovery period. For short biliary excretion study, blood samples are taken at 0, 5 and 180 min and bile samples collection intervals are: 10 min before dosing and 0-180 min. All blood and bile samples are collected from 2 rats and are not pooled. Bile is kept at 4° C. during the collecting intervals and immediately frozen in dry ice after the collecting period is over.
As biliary clearance is expected to be impaired in patients with liver diseases (Clarke J. D. et. al J. Pharm. Exp. Ther. 348:452-458; Ferslew B. C. et al. Clin. Pharm. & Ther. Vol 97(4) XX), a reduced biliary clearance results in a better predictibitlity of the pharmacokinetics and assessment of safety margins in this patient population.

The target of another data set is AOC3 (Homo sapiens (Human), UniProt Q16853). Nature of the data set: MAO-Glo AOC3 assay (recombinant CHO cells overexpressing AOC3). It is filed as biochemical. From the text: The MAO-Glo™ Assay (commercial available from PROMEGA, # V1402) provides a sensitive method for the measurement of monoamine oxidase (MAO) activity (Valley, M. P. et al., 2006, Anal. Biochem. 359: 238-246) from a variety of tissues, biofluids or recombinant expressed or purified enzymes. As substrate a derivate of the beetle luciferin ((4S)-4,5-dihydro-2-(6-hydroxybenzothiazolyl)-4-thiazole-carboxylic acid) is used, which is oxidized at a primary amine moiety. After a spontaneous elimination and a catalyzed esterase reaction, the turnover of the luciferine by the luciferase is recorded as a signal of AOC3 activity.
An aliquot of 3 μL of the compound dilution is added to a 384 well plate (Optiplate, PS, flat bottom, white, PERKIN ELMER, #6007290) with a final DMSO concentration of 6.6%. Recombinant CHO cells, overexpressing the human (1500 cells/well), mouse (1000 cells/well) or rat (500 cells/well) AOC3 enzyme are diluted in reaction buffer and added in a volume of 15 μL to the wells. After incubation for 20 minutes at 37° C., 2 μL of MAO substrate (dissolved in DMSO at 16 mM, adjusted to assay concentration in reaction buffer to a final assay concentration of 20 μM) is added and further incubated for 60 minutes at 37° C. The turnover of the substrate is determined by the addition of 20 μL of the detection-mix which was generated by the addition of reconstitution buffer with esterase (PROMEGA, # V1402) to the luciferine detection reagent (PROMEGA, # V1402). After an incubation period of 20 minutes, the luminescent signal is measured with Envision 2104 Multilabel Reader (PERKIN ELMER).
In the following table the activity expressed as IC50 (nM) of compounds according to the invention is presented wherein the IC50 values are determined in the MAO-Glo™ AOC3 assay as described hereinbefore. The term “Example” refers to the example numbers according to the following experimental section.

The test system of the next data set is hepatocytes. Nature of the data set: Metabolic stability assay in hepatocyte suspension. It is filed as in vitro ADME. Conditions: 1 μM test compound. On the procedure:
The metabolic degradation of the test compound is assayed in a hepatocyte suspension. Hepatocytes (typically cryopreserved) are incubated in an appropriate buffer system (e.g. Dulbecco's modified eagle medium plus 3.5 μg glucagon/500 mL, 2.5 mg insulin/500 mL and 3.75 mg/500 mL hydrocortison) containing 5% species serum. Following a (typically) 30 min preincubation in an incubator (37° C., 10% CO2) 5 μl of test compound solution (80 μM; from 2 mM in DMSO stock solution diluted 1:25 with medium) are added into 395 μl hepatocyte suspension (cell density in the range 0.25-5 Mio cells/mL, typically 1 Mio cells/mL; final concentration of test compound 1 μM, final DMSO concentration 0.05%). The cells are incubated for six hours (incubator, orbital shaker) and samples (25 μl) are taken at 0, 0.5, 1, 2, 4 and 6 hours. Samples are transferred into acetonitrile and pelleted by centrifugation (5 min). The supernatant is transferred to a new 96-deepwell plate, evaporated under nitrogen and resuspended. Decline of parent compound is analyzed by HPLC-MS/MS
CLint is calculated as follows CL_INTRINSIC=Dose/AUC=(C0/CD)/(AUD+clast/k)×1000/60. C0: initial concentration in the incubation [μM], CD: cell density of vital cells [10e6 cells/mL], AUD: area under the data [μM×h], clast: concentration of last data point [μM], k: slope of the regression line for parent decline [h-1].
The calculated in vitro hepatic intrinsic clearance can be scaled up to the intrinsic in vivo hepatic Clearance and used to predict hepatic in vivo blood clearance (CL) by the use of a liver model (well stirred model). CL_INTRINSIC_INVIVO [ml/min/kg]=(CL_INTRINSIC [μL/min/10e6 cells]×hepatocellularity [10e6 cells/g liver]×liver factor [g/kg bodyweight])/1000 CL [ml/min/kg]=CL_INTRINSIC_INVIVO [ml/min/kg]×hepatic blood flow [ml/min/kg]/(CL_INTRINSIC_INVIVO [ml/min/kg]+hepatic blood flow [ml/min/kg])

Setting [2] is: comparative compounds of EP 2 695 881.
Setting [3] is: compounds of the present invention.
Setting [4] is: Table 2, compounds of the present invention, read-out: IC50.
The mark [5] stands for this setting: Table 3, compounds of the present invention.

SMILES strings stand for the structures. Read-outs that look alike come from different tables or passages of the source.

As a reminder, the IC50 is the midpoint of a concentration-inhibition curve.

Sequence of AOC3 (Q16853 whole entry): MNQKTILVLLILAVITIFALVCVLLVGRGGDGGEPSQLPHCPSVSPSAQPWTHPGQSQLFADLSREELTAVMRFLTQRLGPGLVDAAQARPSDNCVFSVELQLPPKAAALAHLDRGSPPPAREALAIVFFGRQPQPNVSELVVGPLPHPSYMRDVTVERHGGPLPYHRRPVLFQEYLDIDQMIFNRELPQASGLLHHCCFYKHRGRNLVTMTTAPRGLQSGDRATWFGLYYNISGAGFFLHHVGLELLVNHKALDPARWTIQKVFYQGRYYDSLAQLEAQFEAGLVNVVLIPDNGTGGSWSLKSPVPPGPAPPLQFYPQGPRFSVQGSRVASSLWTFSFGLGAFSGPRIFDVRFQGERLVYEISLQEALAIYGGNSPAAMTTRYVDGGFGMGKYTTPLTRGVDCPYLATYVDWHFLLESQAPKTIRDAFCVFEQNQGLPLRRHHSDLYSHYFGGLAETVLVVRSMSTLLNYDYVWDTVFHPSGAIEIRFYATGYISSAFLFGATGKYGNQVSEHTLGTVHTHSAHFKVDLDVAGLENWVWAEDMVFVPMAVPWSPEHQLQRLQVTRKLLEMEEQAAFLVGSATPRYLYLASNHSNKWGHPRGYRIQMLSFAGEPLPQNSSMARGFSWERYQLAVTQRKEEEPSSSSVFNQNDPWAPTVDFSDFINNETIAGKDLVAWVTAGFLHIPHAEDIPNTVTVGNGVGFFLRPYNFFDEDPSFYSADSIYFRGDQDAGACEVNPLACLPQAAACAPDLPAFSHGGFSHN

Turning to `CC(=O)N1CCC(C2CN(c3cccc(COC(=O)NC(=N)N)c3F)C2)CC1` [559 (293), reference compound], in data set [1] (setting [2]), the “Cl (biliary clearance)” value stood at 10.3%.

On to `N=C(N)NC(=O)OCc1ccnc(N2CCN(c3ccc(C(N)=O)cc3)CC2)c1F` [Example 1.084], for which the “Cl (biliary clearance)” value in data set [1] (setting [3]) is 2.2%. For the same molecule, the IC50 worked out at 3 nM at AOC3 (Table 1, read-out: AOC3 IC50) and 2.8 nM on AOC3 (setting [4]). Moreover, the values for the QH in the data set on hepatocytes (setting [5]) and in the data set on hepatocytes (Table 4) were 23% and 10%, respectively.

For the molecule `COc1ncc(N2CCN(c3nccc(COC(=O)NC(=N)N)n3)CC2)cn1` [Example 1.040], on AOC3 (Table 1, read-out: AOC3 IC50), the IC50 was found to be 7 nM. The same molecule showed a QH in the data set on hepatocytes (Table 4) of 7%.

For `COc1ncc(N2CCN(c3nccc(COC(=O)NC(=N)N)c3F)CC2)cn1` [Example 1.072], the “Cl (biliary clearance)” value in data set [1] (setting [3]) stood at 1.2%. The half-maximal inhibitory concentration (IC50) is 4 nM on AOC3 (Table 1, read-out: AOC3 IC50) and 4.1 nM on AOC3 (setting [4]). Further, the QH is given as 3.7% in the data set on hepatocytes (setting [5]) and 4% in the data set with hepatocytes (Table 4).

For `N#Cc1cccc(N2CCN(c3nccc(COC(=O)NC(=N)N)c3F)CC2)c1` [Example 1.054], on AOC3 (Table 1, read-out: AOC3 IC50), the IC50 is 1 nM. Also, the QH with hepatocytes (Table 4) is on record as 14%.

For the molecule `N=C(N)NC(=O)OCc1cccc(N2CCN(c3ccc(C(N)=O)cc3)CC2)c1F` [reference compound], the IC50 at AOC3 (Table 2, comparative compounds of EP 2 695 881, read-out: IC50) came out at 2.5 nM. In the data set with hepatocytes (Table 3, comparative compounds of EP 2 695 881), this molecule came in with a QH of 47%.

As for `N#Cc1ccc(N2CCN(c3nccc(COC(=O)NC(=N)N)c3F)CC2)cc1` [Example 1.055], the 50% inhibitory concentration (IC50) at AOC3 (Table 1, read-out: AOC3 IC50) turned out to be 2 nM. In addition, in the data set with hepatocytes (Table 4), the QH came out at 16%.

On to `COc1cccc(C2=CCN(c3nccc(COC(=O)NC(=N)N)c3F)CC2)c1` [Example 1.058], for which the IC50 at AOC3 (Table 1, read-out: AOC3 IC50) was 4 nM. Further, the QH in the data set on hepatocytes (Table 4) came to 18%.

As for `CC(=O)N1CCC(COc2ncc(-c3cccc(COC(=O)NC(=N)N)c3F)cn2)CC1` [11 (221), reference compound], the “Cl (biliary clearance)” value in data set [1] (setting [2]) is 22.4%.
